From US12336981B2, “Compounds and compositions for the inhibition of NAMPT” (Valo Health, Inc., priority 2010, dated 2025)
pIC50: −log10 of the molar value. Like-named read-outs stand apart in the source and are kept apart here.

Assays:
U251 cells = test: In-vitro cell proliferation assay (SRB), U251 cells; type: cell-based; settings: Homo sapiens, U-251, 72 hours
Method: After overnight incubation at 37° C. and 5% CO2, the compound titrations were performed in a separate dilution plate by serially diluting the compounds in DMSO to make a 1000× stock. The compounds were then further diluted to 10× final concentration in culture media, whereupon 20 μL of each dilution was added to the plated cells with controls (e.g. DMSO and blank) to make a final volume of 5 200 μL. The final DMSO concentration in each well was 0.1%. The plates were then incubated for 72 hours at 37° C. in a 5% CO2 incubator. The number of viable cells was then assessed using sulforhodamine B (SRB) assay. Cells were fixed at 4° C. for 1 hour with the addition of 50 μL 30% trichloroacetic acid (TCA) to make a final concentration of 6% 10 TCA. The plates were washed four times with H2O and allowed to dry for at least 1 hour, whereupon 100 μL of a 4% SRB in 1% acetic acid solution was added to each well and incubated at room temperature for at least 30 minutes. The plates were then washed three times with 1% acetic acid, dried, and treated with 100 μL of 10 mM Tris-Base solution. The plates were then read in a microplate reader at an absorbance of 570 nm. 15 Background was generated on a separate plate with media only. Method for Determining % Inhibition First, the signals from the background plate are averaged, then the background was subtracted from the test plates.

NAMPT = target: T1, NAMPT (Homo sapiens, UniProt P43490); test: Biochemical inhibition assay: NAMPT enzymatic reaction, NMN quantified by mass spectrometry; settings: read-out: Biochem IC50
T1 construct: His tag; host or cells: E. coli
Method in brief: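 Inhibition of E. coli-expressed His-tagged human NAMPT, measured as NMN formation by mass spectrometry after a 30 min room-temperature reaction containing 1 μM NAM, 100 μM PRPP and 2.5 mM ATP.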

A2780 cells = test: In-vitro cell proliferation assay (SRB), A2780 cells; type: cell-based; settings: Homo sapiens, A2780, 72 h, A2780 cells, 72 hours, read-out: A2780 IC50
Method in brief: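 Proliferation is assessed by sulforhodamine B staining following a 72-hour incubation with compound dilutions containing 0.1% DMSO.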

T1 sequence (P43490 whole entry): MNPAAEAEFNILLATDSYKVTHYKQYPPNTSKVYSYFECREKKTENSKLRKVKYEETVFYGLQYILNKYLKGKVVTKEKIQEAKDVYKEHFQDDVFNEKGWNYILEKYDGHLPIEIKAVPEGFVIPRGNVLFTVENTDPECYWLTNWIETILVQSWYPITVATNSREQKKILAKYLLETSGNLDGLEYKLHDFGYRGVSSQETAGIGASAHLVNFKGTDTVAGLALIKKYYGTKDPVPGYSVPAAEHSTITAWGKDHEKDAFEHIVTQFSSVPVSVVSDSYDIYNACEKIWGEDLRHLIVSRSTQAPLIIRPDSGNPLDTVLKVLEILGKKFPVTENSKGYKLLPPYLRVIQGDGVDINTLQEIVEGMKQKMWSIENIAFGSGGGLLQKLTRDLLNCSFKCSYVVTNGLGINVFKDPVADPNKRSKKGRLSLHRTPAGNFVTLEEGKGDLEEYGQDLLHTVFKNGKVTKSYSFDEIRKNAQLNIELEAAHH

| SMILES | pIC50 (U251 cells) | pIC50 (NAMPT; NAMPT enzymatic reaction) | pIC50 (A2780 cells; SRB) | pIC50 (NAMPT; NAMPT enzymatic assay) | pIC50 (A2780 cells; SRB assay) |
| --- | --- | --- | --- | --- | --- |
| O=C(NCc1ccc([S+]([O-])c2cc(F)cc(F)c2)cc1)c1ccc2nccn2c1 (stereo not drawn) [N-({4-[(3,5-difluorobenzene)sulfinyl]phenyl}methyl)imidazo[1,2-a]pyridine-6-carboxamide] | 8.18 |  |  |  |  |
| CCOc1ccc(Cl)cc1S(=O)(=O)c1ccc(CNC(=O)c2cnc3nccn3c2)cc1 |  | 8.72 | 8.48 |  |  |
| CN1CCN(c2ccc(S(=O)(=O)c3ccc(CNC(=O)c4cc5ccncc5o4)cc3)cc2)CC1 |  |  | 9.30 | 9.00 |  |
| O=C(NCc1ccc(S(=O)(=O)c2cccc(N3CCCC3)c2)cc1)c1cnc2nccn2c1 |  |  | 8.39 | 8.60 |  |
| O=C(NCc1ccc(S(=O)(=O)c2cccc(Cl)c2)cc1)c1cnc2[nH]ncc2c1 [N-({4-[(3-chlorobenzene)sulfonyl]phenyl}methyl)-1H-pyrazolo[3,4-b]pyridine-5-carboxamide] |  | 8.15 | 8.22 |  |  |
| CCNC(=O)c1ccc(S(=O)(=O)c2ccc(CNC(=O)c3cnc4nccn4c3)cc2)cc1 |  |  | 7.06 | 7.65 |  |
| Cn1ncc2c(S(=O)(=O)c3ccc(CNC(=O)c4cc5ccncc5o4)cc3)cccc21 [N-{[4-(1-methyl-1H-indazole-4-sulfonyl)phenyl]methyl}furo[2,3-c]pyridine-2-carboxamide] |  |  | 8.44 | 8.04 |  |
| Cc1ccc(S(=O)(=O)c2ccc(CNC(=O)c3cc4cnccc4[nH]3)cc2)cn1 [N-{[4-(6-methylpyridine-3-sulfonyl)phenyl]methyl}-1H-pyrrolo[3,2-c]pyridine-2-carboxamide] |  |  | 7.89 | 7.25 |  |
| COc1ccc(OC(F)(F)F)cc1S(=O)(=O)c1ccc(CNC(=O)c2cc3cnccc3[nH]2)cc1 |  |  | 8.18 | 7.32 |  |
| Cc1ccc(S(=O)(=O)c2ccc(CNC(=O)c3cnc4nccn4c3)cc2)c(F)c1 |  | 8.20 | 7.21 |  |  |
| O=C(NCc1ccc(S(=O)(=O)c2cccc(C(F)(F)F)c2Cl)cc1)c1cnc2nccn2c1 |  |  | 7.61 | 8.62 |  |
| O=C(NCc1ccc(S(=O)(=O)c2ccc3c(c2)OCO3)cc1)c1cc2ccncc2s1 [N-{[4-(2H-1,3-benzodioxole-5-sulfonyl)phenyl]methyl}thieno[2,3-c]pyridine-2-carboxamide] |  | 8.52 |  |  | 8.60 |
| O=C(NCc1ccc(S(=O)(=O)Cc2ccccc2)cc1)c1cc2cnccc2[nH]1 [N-{[4-(phenylmethane)sulfonylphenyl]methyl}-1H-pyrrolo[3,2-c]pyridine-2-carboxamide] |  | 7.54 |  |  | 6.52 |
| CN(C)CCOc1cccc(S(=O)(=O)c2ccc(CNC(=O)c3cc4ccncc4o3)cc2)c1 |  |  | 8.24 | 7.93 |  |
| Cc1cc(C)c(S(=O)(=O)c2ccc(CNC(=O)c3cnc4nccn4c3)cc2)cc1C |  | 8.16 | 7.62 |  |  |
| O=C(NCc1ccc(S(=O)(=O)c2cccc(N3CCOCC3)c2)cc1)c1cc2cc(O)ccc2[nH]1 |  | 6.00 to 7.00 | 5.00 to 6.00 |  |  |
| COc1ccc(S(=O)(=O)c2ccc(CNC(=O)c3cc4ccncc4s3)cc2)nc1 [N-{[4-(5-methoxypyridine-2-sulfonyl)phenyl]methyl}thieno[2,3-c]pyridine-2-carboxamide] |  |  | 7.71 | 8.15 |  |
| Cc1nc(S(=O)(=O)c2ccc(CNC(=O)c3cc4ccncc4o3)cc2)cs1 [N-{[4-(2-methyl-1,3-thiazole-4-sulfonyl)phenyl]methyl}furo[2,3-c]pyridine-2-carboxamide] |  |  | 7.16 | 7.44 |  |
| COc1ccc(Cl)cc1S(=O)(=O)c1ccc(CNC(=O)c2cnc3nccn3c2)cc1 |  | 8.26 | 8.21 |  |  |
| Cc1ccncc1S(=O)(=O)c1ccc(CNC(=O)c2cnc3nccn3c2)cc1 [N-{[4-(4-methylpyridine-3-sulfonyl)phenyl]methyl}imidazo[1,2-a]pyrimidine-6-carboxamide] |  |  | 6.00 to 7.00 | 7.72 |  |
| Cc1cccc(S(=O)(=O)c2ccc(CNC(=O)c3cc4ccncc4o3)cc2)c1C |  | 7.29 | 8.10 |  |  |
| COc1ccc2cc(S(=O)(=O)c3ccc(CNC(=O)c4cc5ccncc5o4)cc3)ccc2c1 [N-{[4-(6-methoxynaphthalene-2-sulfonyl)phenyl]methyl}furo[2,3-c]pyridine-2-carboxamide] |  |  | 8.44 | 8.52 |  |

| SMILES | pIC50 (U251 cells) | pIC50 (NAMPT; NAMPT enzymatic reaction) | pIC50 (A2780 cells; SRB) | pIC50 (NAMPT; NAMPT enzymatic assay) | pIC50 (A2780 cells; SRB assay) |
| --- | --- | --- | --- | --- | --- |
| CCOc1cccc(S(=O)(=O)c2ccc(CNC(=O)c3cc4ccncc4o3)cc2)c1F |  | 7.76 | 7.64 |  |  |
| CC(=O)c1ccc(S(=O)(=O)c2ccc(CNC(=O)c3cnc4nccn4c3)cc2)cc1 |  | 8.28 | 8.19 |  |  |
| Cn1ncc2c(S(=O)(=O)c3ccc(CNC(=O)c4ccc5nccn5c4)cc3)cccc21 [N-{[4-(1-methyl-1H-indazole-4-sulfonyl)phenyl]methyl}imidazo[1,2-a]pyridine-6-carboxamide] |  |  | 8.52 | 7.90 |  |
| COc1ccccc1S(=O)(=O)c1ccc(CNC(=O)c2cnc3[nH]ncc3c2)cc1 [N-({4-[(2-methoxybenzene)sulfonyl]phenyl}methyl)-1H-pyrazolo[3,4-b]pyridine-5-carboxamide] |  | 7.17 | 7.21 |  |  |
| O=C(NCc1ccc(S(=O)(=O)c2cccc(-c3ccccc3)c2)cc1)c1cnc2nccn2c1 |  | 9.05 | 8.48 |  |  |
| COc1cc(S(=O)(=O)c2ccc(CNC(=O)c3cc4ccncc4o3)cc2)ccc1Cl [N-({4-[(4-chloro-3-methoxybenzene)sulfonyl]phenyl}methyl)furo[2,3-c]pyridine-2-carboxamide] |  | 8.23 | 8.22 |  |  |
| COc1ccc(C(C)(C)C)cc1S(=O)(=O)c1ccc(CNC(=O)c2cnc3nccn3c2)cc1 |  |  | 8.11 | 8.01 |  |
| O=C(NCc1ccc(S(=O)(=O)c2cc(F)cc(C(F)(F)F)c2)cc1)c1cnc2[nH]ncc2c1 [N-[(4-{[3-fluoro-5-(trifluoromethyl)benzene]sulfonyl}phenyl)methyl]-1H-pyrazolo[3,4-b]pyridine-5-carboxamide] |  |  | 8.46 | 7.95 |  |
| N#Cc1ccccc1S(=O)(=O)c1ccc(CNC(=O)c2cc3ccncc3s2)cc1 [N-({4-[(2-cyanobenzene)sulfonyl]phenyl}methyl)thieno[2,3-c]pyridine-2-carboxamide] |  | 7.84 | 7.17 |  |  |
| O=C(NCc1ccc(S(=O)(=O)c2cccc(N3CCOCC3)c2)cc1)c1ccc2ncsc2c1 [N-[(4-{[3-(morpholin-4-yl)benzene]sulfonyl}phenyl)methyl]-1,3-benzothiazole-6-carboxamide] |  |  | 5.00 to 6.00 | 7.40 |  |
| CC(C)COc1cccc(S(=O)(=O)c2ccc(CNC(=O)c3cc4ccncc4o3)cc2)c1 |  |  | 7.17 | 7.83 |  |
| CCOCc1ccccc1S(=O)(=O)c1ccc(CNC(=O)c2cc3ccncc3o2)cc1 |  |  | 7.59 | 7.88 |  |
| CC(C)NC(=O)c1cc(S(=O)(=O)c2ccc(CNC(=O)c3cc4ccncc4s3)cc2)ccc1F |  |  | 8.17 | 7.67 |  |
| CCOc1cc(F)ccc1S(=O)(=O)c1ccc(CNC(=O)c2cnc3[nH]ncc3c2)cc1 |  | 7.06 | 7.17 |  |  |
| O=C(NCc1ccc(S(=O)(=O)c2ccc(C(F)(F)F)cc2OCC(F)(F)F)cc1)c1ccc2nccn2c1 [N-[(4-{[2-(2,2,2-trifluoroethoxy)-4-(trifluoromethyl)benzene]sulfonyl}phenyl)methyl]imidazo[1,2-a]pyridine-6-carboxamide] |  |  | 8.92 | 8.15 |  |
| O=C(NCc1ccc(S(=O)(=O)c2cncc(N3CCCC3)c2)cc1)c1cc2cnccc2[nH]1 [N-({4-[5-(pyrrolidin-1-yl)pyridine-3-sulfonyl]phenyl}methyl)-1H-pyrrolo[3,2-c]pyridine-2-carboxamide] |  |  | 8.70 | 7.86 |  |
| O=C(NCc1ccc(S(=O)(=O)c2ccco2)cc1)c1ccc2nccn2c1 [N-{[4-(furan-2-sulfonyl)phenyl]methyl}imidazo[1,2-a]pyridine-6-carboxamide] |  |  | 6.00 to 7.00 | 7.12 |  |
| COc1ccc(Cl)c(S(=O)(=O)c2ccc(CNC(=O)c3cc4cnccc4[nH]3)cc2)c1 |  | 7.96 | 8.01 |  |  |
| CCOCc1ccc(S(=O)(=O)c2ccc(CNC(=O)c3cc4ccncc4o3)cc2)cc1 |  |  | 8.18 | 8.31 |  |
| O=C(NCc1ccc(S(=O)(=O)c2nccs2)cc1)c1cc2ccncc2s1 [N-{[4-(1,3-thiazole-2-sulfonyl)phenyl]methyl}thieno[2,3-c]pyridine-2-carboxamide] |  |  | 7.12 | 7.84 |  |
| O=C(NCc1ccc(S(=O)(=O)c2ccc3c(c2)OCO3)cc1)c1cc2ccncc2o1 [N-{[4-(2H-1,3-benzodioxole-5-sulfonyl)phenyl]methyl}furo[2,3-c]pyridine-2-carboxamide] |  |  | 8.06 | 8.28 |  |
| CC(C)c1cccc(S(=O)(=O)c2ccc(CNC(=O)c3cnc4[nH]ncc4c3)cc2)c1 |  |  | 8.20 | 7.86 |  |
